Measured values: patent publication US11753403B2, “EIF4E inhibitors and uses thereof” (PIC Therapeutics, Inc., priority 2020, dated 2023)

The molecules below were run against Human eIF4E (aa 28-217) / biotin labeled 4G2 peptide (Homo sapiens (Human), UniProt P06730) (assay: Human eIF4E/4G2 binding assay (TR-FRET)). Conditions: Human eIF4E/4G2 TR-FRET binding assay; head says IC50, legend says EC50.
Chain of Human eIF4E (aa 28-217) / biotin labeled 4G2 peptide (P06730 28-217): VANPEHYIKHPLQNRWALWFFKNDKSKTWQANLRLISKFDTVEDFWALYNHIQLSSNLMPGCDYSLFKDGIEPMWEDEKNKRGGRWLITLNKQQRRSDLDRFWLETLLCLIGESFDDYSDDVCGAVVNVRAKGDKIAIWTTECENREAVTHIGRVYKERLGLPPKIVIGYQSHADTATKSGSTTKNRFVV
Procedure: Example 5. Compound Testing in Human eIF4E/4G2 Binding Assay
Human eIF4E (aa 28-217) with a C-terminal His-tag was expressed in E. coli in inclusion bodies. The protein was solubilized with 8 M urea and purified under denaturing conditions using nickel-charged HisTrap HP columns (GE Healthcare). The purified protein was then refolded by diluting in 20 mM Hepes pH 7.0, 0.5 M NaCl, 1 mM DTT, 1 mM EDTA, 0.5 M arginine plus 6 M urea, and then dialyzing overnight into the same buffer without the urea. The protein was further dialyzed into 20 mM Hepes, pH 6.5, 50 mM NaCl, 1 mM EDTA, 1 mM DTT, and concentrated using Hitrap SP sepharose FF columns (GE Healthcare). The concentrated protein was dialyzed into 20 mM Hepes, pH 7.0, 0.5M NaCl, 5 mM DTT and 10% glycerol, and stored at −80° C. until use.
Test compounds (3.43 mM stock in DMSO) were diluted 2-fold in series in DMSO (10 concentration points). Compound solutions (1.2 μl/well) were added into black 384-well polypropylene microplates (Matrix, Thermal Scientific). Twenty-two microliters per well of Assay Buffer (50 mM NaPi, pH 6.5, 50 mM KCl, 1 mM DTT and 0.5 mg/ml gamma globulin) and eight microliters per well of 82.5 nM purified eIF4E in Assay Buffer were added. The samples were incubated at room temperature (20-23° C.) for 4 hours. Biotin labeled 4G2 peptide (Ac-Lys-Gln-Tyr-Asp-Arg-Glu-Phe-Leu-Leu-Asp-Phe-Gln-Phe-Met-Pro-Lys(Aha-Bio)-NH2, 1.75 μM stock in DMSO) was diluted to 0.14 μM in Assay Buffer (without DTT) and 5 μl/well was added. The samples were incubated at room temperature for 20 min. Five microliters per well of 6.4 nM Eu-streptavidin (Eu-SA, Perkin Elmer) and 80 nM Allophycocyanin (APC)-anti His antibody (Columbia Biosciences) in Assay Buffer (without DTT) were then added and the samples were incubated at room temperature for 20 min.
Assay signals were monitored by reading excitation at 340 nm and emission fluorescence at 615 nm and 665 nm on an Envision reader (Perkin Elmer). Normalized TR-FRET (time-resolved fluorescence resonance energy transfer) assay signal (Rn) was calculated by the formula: Rn=[(A−Ba−C×D)/(D−Bd)]×(Dc−Bd) Where A is the fluorescence intensity of the sample at 665 nm, • D is the fluorescence intensity of the sample at 615 nm, • Ba and Bd are plate backgrounds at 665 nm and 615 nm, respectively, • Dc is the fluorescence intensity of 0.78 nM Eu-SA in the assay buffer at 615 nm The cross-talk factor (C) is determined by the following formula: C=(Ac−Ba)/(Dc−Bd) Where Ac is the fluorescence intensity of 0.78 nM Eu-SA in the assay buffer at 665 nm.
IC50 values were calculated using xLFit program (IDBS). Table 2 below lists EC50 of some compounds, wherein A represents EC50≤1 uM; B represents 1 uM<EC50≤10 uM; and C represents EC50>10 uM.
`CC(C)Cc1sc(N(CCC(=O)O)Cc2ccccc2)nc1-c1ccc(-c2ccc(F)cc2)cc1` [I-101, 3-(benzyl(4-(4′-fluorobiphenyl-4-yl)-5-isobutylthiazol-2-yl)amino)propanoic acid] gave an IC50 of no more than 1 µM. Molecule `CC(C)Cc1sc(N(CCC(=O)O)Cc2ccccc2)nc1-c1ccc(Oc2ccccc2)c(Cl)c1` [I-103] has an IC50 of no more than 1 µM. Molecule `CC(C)Cc1sc(N(CCC(=O)O)CC2CC2)nc1-c1ccc(Cl)c(Cl)c1` [I-105] has an IC50 of 1 to 10 µM. For `CC(C)Cc1sc(N(CCC(=O)O)CCC2CC2)nc1-c1ccc(Cl)c(Cl)c1` [I-106], the IC50 was 1 to 10 µM. For `CC(C)Cc1sc(N(CCC(=O)O)Cc2cccc(Cl)c2)nc1-c1ccc(Cl)c(Cl)c1` [I-107], the IC50 was no more than 1 µM. `CC(C)Cc1sc(N(CCC(=O)O)Cc2ccccc2Cl)nc1-c1ccc(Cl)c(Cl)c1` [I-108] showed an IC50 of no more than 1 µM. `CC(C)Cc1sc(N(CCC(=O)O)Cc2ccc(Cl)cc2)nc1-c1ccc(Cl)c(Cl)c1` [I-109] was tested, and the IC50 was 1 to 10 µM. Work on `CC(C)Cc1sc(N(CCC(=O)O)Cc2ccc[nH]2)nc1-c1ccc(Cl)c(Cl)c1` [I-110] yielded an IC50 of 1 to 10 µM. Work on `CC(C)Cc1sc(N(CCC(=O)O)Cc2ccccc2)nc1-c1cc(Cl)c(Cl)c(Cl)c1` [I-111] yielded an IC50 of no more than 1 µM. `CC(C)Cc1sc(NCC(C(=O)O)N(C)Cc2ccccc2)nc1-c1ccc(Cl)c(Cl)c1` (stereo not shown) [I-114, 2-(benzyl(methyl)amino)-3-(4-(3,4-dichlorophenyl)-5-isobutylthiazol-2-ylamino)propanoic acid] gave an IC50 of 1 to 10 µM. `CC(C)Cc1sc(NCC(N)C(=O)O)nc1-c1ccc(Cl)c(Cl)c1` (stereo not shown) [I-115, 2-amino-3-(4-(3,4-dichlorophenyl)-5-isobutylthiazol-2-ylamino)propanoic acid] showed an IC50 greater than 10 µM. `CC(C)Cc1sc(NCC(C(=O)O)N(C)C)nc1-c1ccc(Cl)c(Cl)c1` (stereo not shown) [I-116, 3-(4-(3,4-dichlorophenyl)-5-isobutylthiazol-2-ylamino)-2-(dimethylamino)propanoic acid] showed an IC50 greater than 10 µM. With `CC(C)Cc1sc(N(CCC(=O)O)Cc2ccccc2)nc1-c1ccc(O)cc1` [I-117] the IC50 was 1 to 10 µM. Molecule `O=Cc1sc(N(CCC(=O)O)Cc2ccccc2)nc1-c1ccc(Cl)c(Cl)c1` [I-119, 3-(benzyl(4-(3,4-dichlorophenyl)-5-formylthiazol-2-yl)amino)propanoic acid] has an IC50 of 1 to 10 µM. `COCc1sc(N(CCC(=O)O)Cc2ccccc2)nc1-c1ccc(Cl)c(Cl)c1` [I-120, 3-(benzyl(4-(3,4-dichlorophenyl)-5-(methoxymethyl)thiazol-2-yl)amino)propanoic acid] showed an IC50 of 1 to 10 µM. Molecule `CSCc1sc(N(CCC(=O)O)Cc2ccccc2)nc1-c1ccc(Cl)c(Cl)c1` [I-121] has an IC50 of 1 to 10 µM. For `O=C(O)CCN(Cc1ccccc1)c1nc(-c2ccc(Cl)c(Cl)c2)c(Cn2ccnc2)s1` [I-122], the IC50 was 1 to 10 µM. `CC(C)Cc1sc(NCC(CCCCN)C(=O)O)nc1-c1ccc(Cl)c(Cl)c1` (stereo not shown) [I-125, 6-amino-2-((4-(3,4-dichlorophenyl)-5-isobutylthiazol-2-ylamino)methyl)hexanoic acid] showed an IC50 greater than 10 µM. Work on `CC(C)Cc1sc(N(CCC(=O)O)Cc2ccccc2)nc1-c1ccc(-c2ccsc2)cc1` [I-126, 3-(benzyl(5-isobutyl-4-(4-(thiophen-3-yl)phenyl)thiazol-2-yl)amino)propanoic acid] yielded an IC50 of no more than 1 µM. Work on `CSc1ccc(-c2nc(N(CCC(=O)O)Cc3ccccc3)sc2CC(C)C)cc1` [I-127] yielded an IC50 of 1 to 10 µM. `CC(C)Cc1sc(N(CCC(=O)O)Cc2ccccc2)nc1-c1ccc(S(C)(=O)=O)cc1` [I-128, 3-(benzyl(5-isobutyl-4-(4-(methylsulfonyl)phenyl)thiazol-2-yl)amino)propanoic acid] showed an IC50 greater than 10 µM. `C=Cc1sc(N(CCC(=O)O)Cc2ccccc2)nc1-c1ccc(Cl)c(Cl)c1` [I-129, 3-(benzyl(4-(3,4-dichlorophenyl)-5-vinylthiazol-2-yl)amino)propanoic acid] gave an IC50 of 1 to 10 µM. In the case of `O=C(O)CCN(Cc1ccccc1)c1nc(-c2ccc(Cl)c(Cl)c2)c(CN2CCC2)s1` [I-130], the IC50 is reported as greater than 10 µM. `CC(C)Cc1sc(N(CCC(=O)NCCN)Cc2ccccc2)nc1-c1ccc(Cl)c(Cl)c1` [I-131, N-(2-aminoethyl)-3-(benzyl(4-(3,4-dichlorophenyl)-5-isobutylthiazol-2-yl)amino)propanamide] gave an IC50 of 1 to 10 µM. Work on `CC(C)Cc1sc(N(CCC(=O)N(C)CCN)Cc2ccccc2)nc1-c1ccc(Cl)c(Cl)c1` [I-132] yielded an IC50 of 1 to 10 µM. `CC(C)Cc1sc(N(CCC(=O)N2CCN(C)CC2)Cc2ccccc2)nc1-c1ccc(Cl)c(Cl)c1` [I-133, 3-(benzyl(4-(3,4-dichlorophenyl)-5-isobutylthiazol-2-yl)amino)-1-(4-methylpiperazin-1-yl)propan-1-one] showed an IC50 greater than 10 µM. `CC(C)Cc1sc(N(CCC(=O)N2CCNCC2)Cc2ccccc2)nc1-c1ccc(Cl)c(Cl)c1` [I-134] showed an IC50 of 1 to 10 µM. `CC(C)Cc1sc(N(CCC(=O)N2CCC(CN)CC2)Cc2ccccc2)nc1-c1ccc(Cl)c(Cl)c1` [I-135] was tested, and the IC50 was 1 to 10 µM. `CC(C)Cc1sc(NCC(NC(=O)c2ccccc2)C(=O)O)nc1-c1ccc(Cl)c(Cl)c1` (stereo not shown) [I-136, 2-benzamido-3-(4-(3,4-dichlorophenyl)-5-isobutylthiazol-2-ylamino)propanoic acid] gave an IC50 of 1 to 10 µM. With `CC(C)Cc1sc(NCC(NC(=O)OC(C)(C)C)C(=O)O)nc1-c1ccc(Cl)c(Cl)c1` (stereo not shown) [I-137, 2-(tert-butoxycarbonylamino)-3-(4-(3,4-dichlorophenyl)-5-isobutylthiazol-2-ylamino) propanoic acid] the IC50 was 1 to 10 µM. `CC(C)Cc1sc(NCC(NC(=O)OCc2ccccc2)C(=O)O)nc1-c1ccc(Cl)c(Cl)c1` (stereo not shown) [I-138, 2-(benzyloxycarbonylamino)-3-(4-(3,4-dichlorophenyl)-5-isobutylthiazol-2-ylamino) propanoic acid] gave an IC50 of no more than 1 µM. In the case of `CCOC(=O)NC1CN(c2nc(-c3ccc(Cl)c(Cl)c3)c(CC(C)C)s2)C1=O` (stereo not shown) [I-139, ethyl 1-(4-(3,4-dichlorophenyl)-5-isobutylthiazol-2-yl)-2-oxoazetidin-3-ylcarbamate], the IC50 is reported as 1 to 10 µM. Molecule `CC(=O)NC(CNc1nc(-c2ccc(Cl)c(Cl)c2)c(CC(C)C)s1)C(=O)O` (stereo not shown) [I-140] has an IC50 greater than 10 µM. `CC(C)Cc1sc(Nc2ccccc2C(=O)O)nc1-c1ccc(Cl)c(Cl)c1` [I-141, 2-(4-(3,4-dichlorophenyl)-5-isobutylthiazol-2-ylamino)benzoic acid] showed an IC50 of 1 to 10 µM. With `CC(C)Cc1sc(N(Cc2ccccc2)C(=O)CC(=O)O)nc1-c1ccc(Cl)c(Cl)c1` [I-143, 3-(benzyl(4-(3,4-dichlorophenyl)-5-isobutylthiazol-2-yl)amino)-3-oxopropanoic acid] the IC50 was greater than 10 µM. `CC(C)Cc1sc(N(CCC(=O)O)C(=O)c2ccccc2)nc1-c1ccc(Cl)c(Cl)c1` [I-144] was tested, and the IC50 was 1 to 10 µM. Molecule `CC(C)Cc1sc(NCC(CCCCN(C)C)C(=O)O)nc1-c1ccc(Cl)c(Cl)c1` (stereo not shown) [I-145, 2-((4-(3,4-dichlorophenyl)-5-isobutylthiazol-2-ylamino)methyl)-6-(dimethylamino) hexanoic acid] has an IC50 greater than 10 µM. In the case of `CC(C)Cc1sc(N(CCCCN)CCC(=O)O)nc1-c1ccc(Cl)c(Cl)c1` [I-146, 3-((4-aminobutyl)(4-(3,4-dichlorophenyl)-5-isobutylthiazol-2-yl)amino)propanoic acid], the IC50 is reported as greater than 10 µM. For `CC(C)Cc1sc(N(CCCCN(C)C)CCC(=O)O)nc1-c1ccc(Cl)c(Cl)c1` [I-147, 3-((4-(3,4-dichlorophenyl)-5-isobutylthiazol-2-yl)(4-(dimethylamino)butyl)amino) propanoic acid], the IC50 was 1 to 10 µM. With `CC(C)Cc1sc(N(CCCCCCN)CCC(=O)O)nc1-c1ccc(Cl)c(Cl)c1` [I-148] the IC50 was greater than 10 µM.
